Entries after “also recorded” stand apart in the source; their conditions may differ.
Key:
[1] = tested on: CD19-CAR T cells / Nalm-6 cells; test: CD19-CAR T cell generation in presence of UA and Nalm-6 killing; type: cell-based, human
[2] = tested on: splenic murine T cells; test: Murine T cells stimulated with αCD3/αCD28 in presence of UA; type: cell-based
Description: Splenic murine T cells were isolated from mice aged 6-20 weeks by negative selection with EasySep mouse T cell isolation kit (Stem cell) according to the manufacturer's instructions. To monitor T cell proliferation, purified T cells were loaded with CellTrace Violet (C34557 ThermoFisher Scientific). T cell activation was initiated using αCD3/CD28 activation beads (11456D; ThermoFisher Scientific) at a ratio of 25 μl dynabeads per 0.5×106 T-cells. Cells were activated with 25-50 μM Urolithin A (Tocris) or DMSO in T cell activation Medium (RPMI (ThermoFisher Scientific) 10% FBS (South America origin), 10 mM Hepes (Sigma), 1×Non-Essential Amino Acid, 1 mM Sodium Pyruvate, 50 µM β-Mercaptoethanol, 100 U/mL penicillin, 100 μg/mL streptomycin and 2 mM Glutamax (ThermoFisher Scientific) for the indicated durations. In selected experiments, cells were stimulated in the presence of inhibitors, namely TCFli (ICG-001; SelleckChem; […]) and PGC-lai (SR-18292, Sigma-Aldrich; […]). For subsequent analysis, activating beads were magnetically removed prior antibody staining. For human T cells, peripheral blood mononuclear cells were purified with a Ficoll-Paque (GE healthcare) gradient. T cells were enriched with EasySep Human T Cell Isolation Kit (StemCell) and activated with dynabead Human T-Activator CD3/CD28 for T Cell Expansion and Activation Kit (11131D; ThermoFisher Scientific), similar to murine T cell stimulation. When the subsequent activation and expansion of CAR T cells was studied, plates were coated with 1 μg/mL anti-human CD3 (αCD3; clone OKT3) and thawed PBMC were cultivated with […] anti-human CD28 (αCD28; 15E8, both Miltenyi Biotec) containing media for three days. (NutriT media (4Cell® Nutri-T media (Sartorius) containing 0.5% penicillin/streptomycin) supplemented with IL-7 (25 U/mL) and IL-15 […] (all Miltenyi Biotec)).
Tumors were minced and digested with Tumor & Tissue Dissociation Reagent (BD Horizon) for 30 min. The remaining organ pieces were filtered through a 70 µm cell strainer. Cells were then washed with PBS 1% BSA and 2 mM EDTA. Immune cells were enriched on a 30%/40%/75% Percoll gradient after a 1700 rpm 17 min centrifugation. Then, tumor immune filtrates or activated T cells were stained with Fixable Viability Dye-eF780 (65-0865-14; eBioscience), αCD45-FITC (30-F11; 11-0451-85; eBioscience), αCD11b-BV650 (M1/70; 56340; BD) α-CD11c-BV785 (HL3; 563735; BD), aLy6G-BV605 (53-6.7; 563005; BD), aLy6C-AF700 (HK1.4; 128024; Biolegend), aF4/80-PE (BM8; 12-4801-82, eBioscience), aPD-L1-PECy7 (MIH5; 25-5982-80, eBioscience); or with Fixable Viability Dye-eF780 (ebioscience), αCD45-BV786 (30-F11; 564225; BD), αCD4-BUV496 (GK1.5; 564667; BD), αCD8-BV605 (100744; Biolegend), aPD1-APC (J43; 17-9985-82; eBioscience), aTIM-3-PECy7 (RMT3-23; 119715; Biolegend), aCTLA4-PE (UC10-4B9; 106305; Biolegend) and aLag3-BV421 (C9B7W; 125221, Biolegend); or with Fixable Viability Dye-eF780 (eBioscience), αCD4-FITC (H129.19; 553650; BD), αCD8-APC (53-6.7; 17-0081-83; eBioscience), αCD44-AF400 (IM7; 103026; Biolegend), αCD62L-BV785 (MEL-14; 104440; Biolegend), αSca-1-PerCP-Cy5.5 (D7; 45-5981-82; eBioscience), αCD95-PE (Jo2; 554258; BD); or with Fixable Viability Dye-eF780 (eBioscience), αCD8-BV650 (53-6.7; 563234; BD), αCD4-BUV496 (GK1.5; 564667; BD), αCD127-APC (A7R34; 17-1271-82; eBioscience), αCD95-FITC (SA367H8;152605; Biolegend), αCD44-AF400 (IM7; 103026; Biolegend), αCD62L-BV785 (MEL-14; 104440; Biolegend), αSca-1-PerCP-Cy5.5 (D7; 45-5981-82; eBioscience) followed by intracellular staining of aTCF1-PE (S33-966; 564217; BD), or PGC-1α (sc-518025; D-5; santa cruz), or aCyclinD1 (MA5-28534, DCS-6; Invitrogen) with transcription factor buffer set kit (BD Biosciences). To study cytokine expression, tumor immune infiltrates were stimulated ex vivo with 20 ng/mL PMA and […] Ionomycin (Sigma) for 3 h in T cell activation medium with Brefeldin A (Biolegend). […]

O=c1oc2cc(O)ccc2c2ccc(O)cc12 [UA, Urolithin A]
CAR gene delivery into CD8+ cells [1]: did not impair
CD19 CAR-T cell mediated killing of NALM-6 leukemia cells ([1]; 24 h co-culture): did not have a negative impact
markers of exhaustion (Tim3HiPD-1Hi CD8+CAR+) ([1]; three days after transduction): not affected
CAR expressing TSCM cells as share of CD8+ cells ([1]; three days post transduction, upon UA exposure): about 60%
lysosome formation in CD8+ T cells ([2]; 6 h, UA 50 μM): enhanced
phosphorylation of Stat1 ([2]; 6 h, UA 50 μM vs vehicle): equal phosphorylation
Parkin protein expression ([2]; 24 h, UA 50 μM): stabilized
PGC-1α in Pink1−/− or Pgam5−/− CD8+ T cells ([2]; 48 h, UA 50 μM): failed to enhance
cyclin D1 expression ([2]; 48 h, UA 50 μM): reduced
CD8+ T cell division / proliferation ([2]; 72 h): restricted; also recorded: restricts T cell proliferation
central memory cells (TCM) ([2]; CD8+ T cells, αCD3/αCD28): reduction
frequency of effector memory cells (TEM) ([2]; CD8+ T cells, αCD3/αCD28): remained unaltered
naïve CD44loCD62Lhi T cells ([2]; CD8+ T cells, αCD3/αCD28): significant increase
number of CD44-CD62L+Sca1hi TSCM ([2]; CD8+ T cells, αCD3/αCD28, up to 72 hours): significantly increased
UA-dependent expansion of CD44-CD62L+Sca1Hi TSCM cells in Pgam5−/− T cells ([2]; Pgam5−/− CD8+ T cells): blocked
TSCM phenotype in Pink1−/− CD8+ T cells ([2]; Pink1−/− CD8+ T cells, presence of UA): failed to exhibit a TSCM phenotype
UA-induced lysosome formation and decrease in mitochondrial content in Pink1−/− T cells ([2]; Pink1−/− T cells): prevented
expression of genes that code for immune checkpoints and effector molecules ([2]; RNA sequencing, 48 hours): reduced
β-catenin phosphorylation ([2]; after 6 hours): marked decrease
mitochondrial content in CD8+ T cells ([2]; after 24 hours): loss of mitochondrial content in a dose-dependent manner
PGC-1α expression ([2]; prolonged UA administration in vitro (48 h, 50 μM)): marked upregulation
transcription of Wnt target genes ([2]; qPCR, 24 h after stimulation): increased transcription
Pgam5 localization ([2]; sub-cellular fractionation immunoblot and immunofluorescence, 6 h): rapidly released into the cytoplasma
T cell death in vitro ([2]; various concentrations of UA): dose-dependent T cell death
mitochondrial membrane potential in CD8+ T cells ([2]; within six hours after UA administration): reduction
TSCM formation in CD4+ cells ([2]; αCD3/αCD28): did not promote enhanced TSCM formation
differentiation into effector T cells (Granzyme B, IFNγ) ([2]; αCD3/αCD28 beads, 48 h): blocked
Atg5, Atg7, p62, Lamp2 and Pink1 gene expression ([2]; αCD3/αCD28 stimulated T cells, 24 h, UA 50 μM): significant upregulation

Source: patent US20240139149A1, “THERAPEUTIC USES OF UROLITHIN DERIVATIVES” (Vandria SA, priority 2022, published 2024)
